Test results reported in patent US20040106545A1, “Compounds and methods for modulating cell adhesion” (priority 1996, published 2004).
Entries after “also recorded” stand apart in the source; their conditions may differ. Positions of bridges follow the written chain, without caps; N, C: chain ends. Residues, ends and D or L forms follow the SMILES beside them.

Experiments:
[1] = test system: SKOV3 cells; assay: Disruption of human ovarian cancer cell (SKOV3) adhesion; format: cell-based; settings: for activity in SKOV3 cells (cell adhesion): 0.01-1 mg/mL; for disruption of SKOV3 cell adhesion: 1 mg/mL media, within 24 hours
Procedure: FIGS. 37A and 37B are photographs illustrating the effect of N—Ac-CHAVC-Y—NH2 (SEQ ID NO:84) on SKOV3 cell adhesion. A confluent culture of SKOV3 cells was briefly trypsinated and counted using a hemacytometer. The cells were diluted to 5×10^3/mL in MEM (Gibco BRL) containing 10% FBS (Wisent). A 10 mg/mL solution of peptide was added directly to the media at a concentration of 1 mg/mL. The plate was incubated in a humidified chamber at 37° C. for 24 hours in 5% CO2. Morphological changes were evaluated after 24 hours.
The human ovarian cancer cell line SKOV3 (ATCC #HTB-77) expresses N-cadherin. SKOV3 cells were cultured in a modified MEM-based media containing 10% FCS. Cells were grown in T-250 culture flasks and maintained by periodic subculturing. Cyclic peptides were tested on cells grown in individual wells of 96-well culture dishes (surface area of each well was 0.32 cm^2). Cells were harvested from flasks and seeded at a density of 50,000 cells per well in 0.1 mL media containing the cyclic peptides at concentrations of 1, 0.1, or 0.01 mg/mL, or in the absence of cyclic peptide. Media control wells were also established. Cultures were evaluated periodically by microscopic examination under both bright field and phase contrast conditions. Cultures were maintained for 48 hours.

[2] = test system: chick embryonic chorioallantoic membranes; assay: Chick chorioallantoic membrane angiogenesis assay; format: in vivo; settings: for Percent Inhibition of Angiogenesis: 24 hours; for inhibition of angiogenesis (in words): 3, 17 and 33 μg/mesh
Procedure: Another cell adhesion assay evaluates the ability of a modulating agent to block angiogenesis (the growth of blood vessels from pre-existing blood vessels). This ability may be assayed using the chick chorioallantoic membrane assay described by Iruela-Arispe et al., Molecular Biology of the Cell 6:327-343, 1995. Briefly, a modulating agent may be embedded in a mesh composed of vitrogen at one or more concentrations (e.g., ranging from about 1 to 100 μg/mesh). The mesh(es) may then be applied to chick chorioallantoic membranes. After 24 hours, the effect of the peptide may be determined using computer assisted morphometric analysis. A modulating agent should inhibit angiogenesis by at least 25% at a concentration of 33 μg/mesh.
The chick chorioallantoic membrane assay was used to assess the effects of cyclic peptides on angiogenesis (Iruela-Arispe et al., Molecular Biology of the Cell 6:327-343, 1995). Cyclic peptides were embedded in a mesh composed of vitrogen at concentrations of 3, 17, and 33 μg/mesh. The meshes were then applied to 12-day-old chick embryonic chorioallantoic membranes. After 24 hours, the effects of the peptides on angiogenesis were assessed by computer assisted morphometric analysis.

[3] = Cytotoxicity, MTT assay, IAFp2; format: cell-based; settings: human, read-out: IAFp2 Cytotox (IC50)
Procedure: (§1) N—Ac-CHAVC-NH2 (SEQ ID NO:10) and the control peptide N—Ac-CHGVC-NH2 (SEQ ID NO:11) were evaluated for possible cytotoxic effects on human microvascular endothelial (HMVEC; Clonetics), human umbilical vein endothelial (HUVEC; ATCC #CRL-1730), IAFp2 (human fibroblast cell line; Institute Armand-Frapier, Montreal, Quebec), WI-38 (human fibroblast cell line; ATCC #CCL-75), MDA-MB231 (human breast cancer cell line; ATCC #HTB-26), and PC-3 (human prostate cancer cell line; ATCC #CRL-1435) cells utilizing the MTT assay (Plumb et al., Cancer Res. 49:4435-4440, 1989). Neither of the peptides was cytotoxic at concentrations up to and including 100 μM. Similarly, neither of the peptides was capable of inhibiting the proliferation of the above cell lines at concentrations up to 100 μM, as judged by ^3H-thymidine incorporation assays.

[4] = Cytotoxicity, MTT assay, PC-3; format: cell-based, human; settings: human, MTT assay, read-out: PC-3 Cytotox (IC50)
Outline: (§2)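 Cytotoxicity of N-Ac-CHAVC-NH2 and the control peptide N-Ac-CHGVC-NH2 was assessed by MTT reduction in human endothelial, fibroblast and cancer cell lines at concentrations up to 100 μM. Proliferation was measured separately by ^3H-thymidine incorporation over the same concentration range.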

[5] = Cytotoxicity, MTT assay, HMVEC; format: cell-based; settings: human, HMVEC (human microvascular endothelial cells), read-out: HMVEC Cytotox (IC50)
Procedure: as §1

[6] = Cytotoxicity, MTT assay, MDA-MB231; format: cell-based, human; settings: human, MTT assay, read-out: MDA-MB231 Cytotox (IC50)
Outline: as §2

[7] = test system: A1N4 human breast epithelial cells; assay: Disruption of breast epithelial cell adhesion, E-cadherin staining; format: cell-based; settings: 500 μg/mL, 48 hours
Procedure: A1N4 human breast epithelial cells (kindly provided by Martha Stampfer, Lawrence Berkeley Laboratory, Berkeley, Calif.) were plated on glass coverslips and cultured in F12/DME containing 0.5% FCS and 10 ng/mL EGF for 24 hours. Fresh medium containing the cyclic peptides (final concentration 500 μg/mL media) N—Ac-CHAVC-NH2 (SEQ ID NO:10) or N—Ac-CHGVC-NH2 (SEQ ID NO:11) was then added. Following 24 hours of culture in the presence of the peptides, the medium was removed and fresh medium containing the peptides was added. The cells were fixed 24 hours later with cold methanol and stored in phosphate buffered saline (PBS).
Coverslips were blocked for 1 hour in 3% ovalbumin/PBS and incubated for a further 1 hour in the presence of 1 μg/mL mouse anti-E-cadherin antibody (Zymed, Gaithersburg, Md.). Primary and secondary antibodies were diluted in PBS containing 6% normal goat serum. Following incubation in the primary antibody, coverslips were washed 3 times for 5 minutes each in PBS and incubated for 1 hour with goat anti-mouse conjugated to fluorescein (Kiekegard and Perry, South San Francisco, Calif.) diluted 1:100. Following a further wash in PBS (3×5 minutes) coverslips were mounted in Vectashield (Vector Labs, Burlingame, Calif.) and viewed with a Zeiss infinity corrected microscope.

[8] = 3 μg/mesh, absence (−) of 0.01 mM VEGF
[9] = 3 μg/mesh, presence (+) of 0.01 mM VEGF
[10] = 17 μg/mesh, absence (−) of 0.01 mM VEGF
[11] = 17 μg/mesh, presence (+) of 0.01 mM VEGF
[12] = 33 μg/mesh, absence (−) of 0.01 mM VEGF
[13] = 33 μg/mesh, presence (+) of 0.01 mM VEGF

With CC[C@H](C)[C@@H]1NC(=O)[C@H](CC(=O)O)NC(=O)[C@H](C(C)C)NC(=O)[C@H](C)NC(=O)[C@H](Cc2c[nH]cn2)NC(=O)[C@H](C)NC(=O)[C@@H](NC(C)=O)CSSC[C@@H](C(N)=O)NC1=O (Ac-CAHAVDIC-NH2; disulfide 1-8) the “activity in SKOV3 cells (cell adhesion)” value [1] was “inactive”, the “Percent Inhibition of Angiogenesis” value [2, 8] was −1%^ and the “Percent Inhibition of Angiogenesis” value [2, 9] was 21%. The “Percent Inhibition of Angiogenesis” value [2, 10] was 15%, the “Percent Inhibition of Angiogenesis” value [2, 11] was 37% and the “Percent Inhibition of Angiogenesis” value [2, 12] was 33%. For the same molecule, the “Percent Inhibition of Angiogenesis” value [2, 13] was 49% and the “inhibition of angiogenesis (in words)” value [2] was “inhibited angiogenesis significantly”.
For CC(=O)N[C@H]1CSSC[C@@H](C(N)=O)NC(=O)[C@H](CC(=O)O)NC(=O)[C@H](C(C)C)NC(=O)[C@H](C)NC(=O)[C@H](Cc2c[nH]cn2)NC(=O)[C@H](C)NC1=O [N—Ac—CAHAVDC—NH2, N-Ac-Cys-Ala-His-Ala-Val-Asp-Cys-NH2] (Ac-CAHAVDC-NH2; disulfide 1-7), the “activity in SKOV3 cells (cell adhesion)” value [1] was “inactive”, the “Percent Inhibition of Angiogenesis” value [2, 8] was 21% and the “Percent Inhibition of Angiogenesis” value [2, 9] was 59%. For the same molecule, the “Percent Inhibition of Angiogenesis” value [2, 10] was 27%, the “Percent Inhibition of Angiogenesis” value [2, 11] was 72% and the “Percent Inhibition of Angiogenesis” value [2, 12] was 31%. For the same molecule, the “Percent Inhibition of Angiogenesis” value [2, 13] was 79% and the “inhibition of angiogenesis (in words)” value [2] was “inhibited angiogenesis significantly”.
With CC(=O)N[C@H]1CSSC[C@@H](C(N)=O)NC(=O)[C@H](C(C)C)NC(=O)[C@H](C)NC(=O)[C@H](Cc2c[nH]cn2)NC1=O [N—Ac—CHAVC—NH2, N-Ac-Cys-His-Ala-Val-Cys-NH2] the IC50 ([3]; IAFp2 fibroblast cell line) was over 100 µM, the IC50 ([4]; PC-3 prostate cancer cell line) was over 100 µM and the “disruption of SKOV3 cell adhesion” value [1] was “disrupted SKOV3 cell adhesion”. For the same molecule, the SKOV3 cell morphology ([1]; 0.5 or 1 mg/ml, 24-48 hours (figure legends)) was “SKOV3 cells retract from one another and round-up”, the “Percent Inhibition of Angiogenesis” value [2, 8] was 12% and the “Percent Inhibition of Angiogenesis” value [2, 9] was 46%. For the same molecule, the “Percent Inhibition of Angiogenesis” value [2, 10] was 22%, the “Percent Inhibition of Angiogenesis” value [2, 11] was 51% and the “Percent Inhibition of Angiogenesis” value [2, 12] was 28%. The “Percent Inhibition of Angiogenesis” value [2, 13] was 51%, the IC50 [5] was over 100 µM and the IC50 ([6]; MDA-MB231 breast cancer cell line) was over 100 µM. The “E-cadherin staining and monolayer of A1N4 cells” value [7] was “distribution of E-cadherin is non-contiguous; also recorded: reduced E-cadherin staining with a stitched appearance”.
In the case of CC(=O)N[C@H]1CSSC[C@@H](C(N)=O)NC(=O)[C@H](C(C)C)NC(=O)CNC(=O)[C@H](Cc2c[nH]cn2)NC1=O [N—Ac—CHGVC—NH2, reference compound], the IC50 ([3]; IAFp2 cells (human fibroblast cell line)) is reported as over 100 µM, the IC50 ([4]; PC-3 cells (human prostate cancer cell line)) is reported as over 100 µM and the “disruption of SKOV3 cell adhesion” value [1] is reported as “had no affect on cell adhesion”. The IC50 [5] was over 100 µM, the IC50 ([6]; MDA-MB231 cells (human breast cancer cell line)) was over 100 µM and the “E-cadherin staining and monolayer of A1N4 cells” value [7] was “displayed E-cadherin staining concentrated at points of cell-cell contact and formed a tightly adherent monolayer”.
